Data: PubChem BioAssay AID248 (DTP/NCI, 2004)
Where “and” joins values, the source holds several entries; their conditions need not be identical. Identical values can stand only once. Inconclusive results and toxic doses are left out. Cut-off read from the data, not from the text of the source: active = T/C of 150% or more; inactive = T/C below 125%.

Test system: L1210 leukemia ip in BDF1 mice, survival T/C
Test: NCI In Vivo Anticancer Drug Screen. Data for tumor model L1210 Leukemia (intraperitoneal) in B6D2F1 (BDF1) mice
Details: endpoint: mean survival time, higher = longer survival
Method in brief: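 Tumor was transplanted into mice, which were then dosed with test compound or vehicle alone. Survival was recorded for each group, and the treated figure was expressed relative to the control figure.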

[1] = dose: 100.0 mg/kg/injection, schedule: Q01DX009 (ip), vehicle: Klucel (hydroxypropylcellulose) (HPC)
[2] = dose: 100.0 mg/kg/injection, schedule: Q04DX002 (ip), vehicle: Klucel (hydroxypropylcellulose) (HPC)
[3] = dose: 200.0 mg/kg/injection, schedule: Q01DX009 (ip), vehicle: Klucel (hydroxypropylcellulose) (HPC)
[4] = dose: 200.0 mg/kg/injection, schedule: Q04DX002 (ip), vehicle: Klucel (hydroxypropylcellulose) (HPC)
[5] = dose: 400.0 mg/kg/injection, schedule: Q04DX002 (ip), vehicle: Klucel (hydroxypropylcellulose) (HPC)
[6] = dose: 100.0 mg/kg/injection, schedule: Q04DX003 (ip), vehicle: saline with Tween-80
[7] = dose: 200.0 mg/kg/injection, schedule: Q04DX003 (ip), vehicle: saline with Tween-80
[8] = dose: 400.0 mg/kg/injection, schedule: Q04DX003 (ip), vehicle: saline with Tween-80
[9] = dose: 100.0 mg/kg/injection, schedule: Q04DX003 (ip), vehicle: Klucel (hydroxypropylcellulose) (HPC)
[10] = dose: 200.0 mg/kg/injection, schedule: Q04DX003 (ip), vehicle: Klucel (hydroxypropylcellulose) (HPC)
[11] = dose: 400.0 mg/kg/injection, schedule: Q04DX003 (ip), vehicle: Klucel (hydroxypropylcellulose) (HPC)
[12] = dose: 100.0 mg/kg/injection, schedule: Q01DX001 (ip), vehicle: Klucel (hydroxypropylcellulose) (HPC)
[13] = dose: 200.0 mg/kg/injection, schedule: Q01DX001 (ip), vehicle: Klucel (hydroxypropylcellulose) (HPC)
[14] = dose: 400.0 mg/kg/injection, schedule: Q01DX001 (ip), vehicle: Klucel (hydroxypropylcellulose) (HPC)
[15] = dose: 50.0 mg/kg/injection, schedule: Q01DX001 (ip), vehicle: carboxymethylcellulose (CMC)
[16] = dose: 100.0 mg/kg/injection, schedule: Q01DX001 (ip), vehicle: carboxymethylcellulose (CMC)
[17] = dose: 200.0 mg/kg/injection, schedule: Q01DX001 (ip), vehicle: carboxymethylcellulose (CMC)
[18] = dose: 400.0 mg/kg/injection, schedule: Q01DX001 (ip), vehicle: carboxymethylcellulose (CMC)
[19] = dose: 100.0 mg/kg/injection, schedule: Q04DX002 (ip), vehicle: saline
[20] = dose: 200.0 mg/kg/injection, schedule: Q04DX002 (ip), vehicle: saline

Measured: T/C

Nc1nc2n(n1)C(=O)C(=O)N2
inactive: dose: 100.0 mg/kg/injection, schedule: Q01DX005 (ip), vehicle: Klucel (hydroxypropylcellulose) (HPC) 109 % of control | [1] 101 % of control | [2] 101 % of control | dose: 200.0 mg/kg/injection, schedule: Q01DX005 (ip), vehicle: Klucel (hydroxypropylcellulose) (HPC) 98 % of control | [3] 104 % of control | [4] 96 % of control | dose: 400.0 mg/kg/injection, schedule: Q01DX005 (ip), vehicle: Klucel (hydroxypropylcellulose) (HPC) 95 % of control | dose: 400.0 mg/kg/injection, schedule: Q01DX009 (ip), vehicle: Klucel (hydroxypropylcellulose) (HPC) 96 % of control | [5] 96 % of control

CCCCNC(=O)C1C2C=CC(CC2)C1C(=O)NCCCC (stereo unspecified)
inactive: [6] 104 % of control | [7] 100 % of control | [8] 96 % of control

OCCNc1nc2ccc(Br)cc2c2ccccc12
inactive: [1] 87 % of control | [9] 93 % of control | [10] 93 % of control | [11] 106 % of control

Nc1nc(N)c2cc(S(=O)(=O)c3ccc4ccccc4c3)ccc2n1
inactive: [1] 91 % of control | [9] 98 % of control | [3] 94 % of control | [10] 96 % of control | [11] 98 % of control

CC(C)(c1ccc(O)cc1)c1ccc(O)cc1
inactive: [6] 96 % of control | [7] 87 % of control | [8] 91 % of control

Cc1cc2c3ccc(C)[n+](C)c3ccc2n1C
inactive: dose: 1.25 mg/kg/injection, schedule: Q01DX009 (ip), vehicle: saline 109 % of control | dose: 2.5 mg/kg/injection, schedule: Q01DX009 (ip), vehicle: saline 115 % of control | dose: 2.5 mg/kg/injection, schedule: Q04DX003 (ip), vehicle: saline 112 % of control | dose: 5.0 mg/kg/injection, schedule: Q01DX009 (ip), vehicle: saline 115 % of control | dose: 5.0 mg/kg/injection, schedule: Q04DX003 (ip), vehicle: saline 110 % of control | dose: 9.5 mg/kg/injection, schedule: Q01DX001 (ip), vehicle: saline 106 % of control | dose: 10.0 mg/kg/injection, schedule: Q04DX003 (ip), vehicle: saline 112 % of control | dose: 20.0 mg/kg/injection, schedule: Q04DX003 (ip), vehicle: saline 103 % of control

Oc1ccc2[nH]c3c(c2c1)C[P+](Cc1cccc2ccccc12)(c1ccccc1)CC3 (stereo unspecified)
inactive: [12] 98 % of control | [13] 93 % of control | [14] 96 % of control

COc1ccc(OC)c(CCO)c1
inactive: [15] 93 % of control | [16] 98 % of control | [17] 91 % of control | [18] 93 % of control

CC(C)(C)[CH2][Sn]([Br])([Br])[CH2]C(C)(C)C
inactive: dose: 9.38 mg/kg/injection, schedule: Q01DX001 (ip), vehicle: other 98 % of control

COc1ccccc1/C=C\C=O
inactive: [16] 103 % of control | [17] 100 % of control | [18] 97 % of control

[O-][n+]1ccc(-c2ccccc2)cc1
inactive: [19] 107 % of control | [20] 96 % of control

O=C1CC(c2ccc(Cl)cc2)C(=O)O1 (stereo unspecified)
inactive: dose: 100.0 mg/kg/injection, schedule: Q01DX001 (ip), vehicle: acetone 98 % of control | dose: 100.0 mg/kg/injection, schedule: Q04DX003 (ip), vehicle: alcohol 98 % of control | dose: 200.0 mg/kg/injection, schedule: Q01DX001 (ip), vehicle: acetone 101 % of control | dose: 200.0 mg/kg/injection, schedule: Q04DX003 (ip), vehicle: alcohol 104 % of control | dose: 400.0 mg/kg/injection, schedule: Q01DX001 (ip), vehicle: acetone 94 % of control

CCOC(=O)CNc1ccc(C(F)(F)F)cc1
inactive: [2] 104 % of control | [4] 104 % of control | [5] 97 % of control

O=C1NCCCC1C(=O)Nc1cccc2c1NCCC2 (stereo unspecified)
inactive: [12] 105 % of control | [13] 94 % of control | [14] 105 % of control

CCCCN(C)/N=N/c1nc[nH]c1C(=O)NN
inactive: [15] 104 % of control | [16] 104 % of control | [17] 101 % of control | [18] 119 % of control

COc1cccc2c1CCC1C2CC=C2CC3(CCC21C)OCCO3 (stereo unspecified)
inactive: dose: 100.0 mg/kg/injection, schedule: Q01DX009 (sc), vehicle: steriod suspending solution 102 % of control | dose: 200.0 mg/kg/injection, schedule: Q01DX009 (sc), vehicle: steriod suspending solution 102 % of control | dose: 400.0 mg/kg/injection, schedule: Q01DX009 (sc), vehicle: steriod suspending solution 101 % of control

CCCCCCCCSC(=O)N(C(C)C)C(C)C
inactive: dose: 50.0 mg/kg/injection, schedule: Q04DX002 (ip), vehicle: saline 100 % of control | [19] 100 % of control and 105 % of control | [20] 100 % of control | dose: 400.0 mg/kg/injection, schedule: Q04DX002 (ip), vehicle: saline 108 % of control and 86 % of control

O=C(O)c1ccccc1NC(=S)c1ccccc1
inactive: dose: 25.0 mg/kg/injection, schedule: Q04DX002 (ip), vehicle: other 96 % of control | dose: 50.0 mg/kg/injection, schedule: Q04DX002 (ip), vehicle: other 96 % of control | dose: 100.0 mg/kg/injection, schedule: Q04DX002 (ip), vehicle: other 93 % of control and 104 % of control

O=C1c2ccccc2C(=O)C1(c1ccccc1)c1ccccc1
inactive: [16] 103 % of control | [17] 97 % of control | [18] 92 % of control

Nc1nc(SCc2ccccc2)c2nnn(C3OC(CO)C(O)C3O)c2n1 (stereo unspecified)
inactive: dose: 100.0 mg/kg/injection, schedule: Q01DX001 (ip), vehicle: saline with Tween-80 101 % of control | dose: 200.0 mg/kg/injection, schedule: Q01DX001 (ip), vehicle: saline with Tween-80 96 % of control | dose: 400.0 mg/kg/injection, schedule: Q01DX001 (ip), vehicle: saline with Tween-80 111 % of control

CN(CC(=O)O)Cc1ccccc1
inactive: dose: 100.0 mg/kg/injection, schedule: Q01DX009 (ip), vehicle: saline 93 % of control | dose: 100.0 mg/kg/injection, schedule: Q04DX003 (ip), vehicle: saline 104 % of control | dose: 200.0 mg/kg/injection, schedule: Q01DX009 (ip), vehicle: saline 88 % of control | dose: 200.0 mg/kg/injection, schedule: Q04DX003 (ip), vehicle: saline 109 % of control | dose: 400.0 mg/kg/injection, schedule: Q01DX009 (ip), vehicle: saline 93 % of control | dose: 400.0 mg/kg/injection, schedule: Q04DX003 (ip), vehicle: saline 102 % of control

C[N+](C)(C)CC1CCCCC1
inactive: dose: 75.0 mg/kg/injection, schedule: Q01DX001 (ip), vehicle: saline 103 % of control

CC1=CC(C)=Nc2ccc(Cl)cc2N1
inactive: dose: 100.0 mg/kg/injection, schedule: Q04DX003 (ip), vehicle: acetone 97 % of control | dose: 200.0 mg/kg/injection, schedule: Q04DX003 (ip), vehicle: acetone 101 % of control | dose: 400.0 mg/kg/injection, schedule: Q04DX003 (ip), vehicle: acetone 92 % of control
